Measurements from patent publication US10106491B2, “Substituted biaryl alkyl amides” (BioTheryX, Inc., priority 2011, dated 2018).

What was measured:
hCdc34 = biological target: T1, hCdc34 (Homo sapiens, UniProt P49427); settings: Ceccarelli et al., Cell 145:1075-1087, 2011; cited from earlier work
T1 sequence (P49427 1-236): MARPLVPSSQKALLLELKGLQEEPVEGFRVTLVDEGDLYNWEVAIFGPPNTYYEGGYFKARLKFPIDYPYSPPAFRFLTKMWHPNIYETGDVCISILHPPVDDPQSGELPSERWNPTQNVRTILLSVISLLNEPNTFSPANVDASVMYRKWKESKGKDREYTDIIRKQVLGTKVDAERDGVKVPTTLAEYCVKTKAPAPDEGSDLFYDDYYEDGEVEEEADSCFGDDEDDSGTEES

[1] = test system: MDA-MB-468-NFkB-Luc2p cell line; assay: TNF-α induced NFkB reporter assay (luciferase); type: cell-based; settings: 1 h before 10 ng/ml TNF-α for 6 h, FIG. 3; for result in TNF-α induced NFkB reporter assay: tested at 20 μM and 5 μM
Procedure: The effects of the compounds described herein on the activation of TNF-mediated pathways were assessed using an MDA-MB-468NFkB-Luc2p reporter cell line (FIG. 3). To construct this cell line, MDA-MB-468 cells were transfected with pGL4.32[luc2P/NF-kB-RE/Hygro] vector (Promega) using TransFast transfection reagent (Promega) according to manufacturer's standard protocol. Briefly, cells were grown in RPMI supplemented with 10% FBS and plated onto sterile 6-well plates (Nunc). When cells became ˜75% confluent, media in each well was removed and replaced with 1 mL RPMI (no FBS) containing […] vector and TransFast for 1 h at 37° C. 2 mL of RPMI with FBS is then added to the well and after 24 h, 500 ug/ml of hygromycin was added for selection to generate a stable reporter cell line.
Stable MDA-MB-468-NFkB-Luc2p cells were plated onto optical-bottom, white wall 96-well plates at 10,000 cells per well and allowed to attach overnight. Compounds B1 through B14 were added at 20 μM and 5 μM respectively for 1 h prior to treatment with 10 ng/ml of recombinant human TNF-α for 6 h. Luciferase signal was determined using the Luciferase Assay System (Promega) and a luminometer.

[2] = test system: Panc-1 (pancreatic cancer) cell line; assay: Panc-1 proliferation assay (MTS); type: cell-based; settings: for growth rate: 72 h, DMSO control = 100%
Procedure: (§1) Proliferation assays were conducted to assess the effects of the compounds described herein on the growth rate of neoplastic cells. For each of the proliferation assays described herein, SK-MEL-28, MDA-MB-468 or Panc-1 cells were grown in RPMI supplemented with 10% FBS and plated onto sterile 96-well tissue culture plates at 20,000 cells per well and allowed to attach overnight. Compounds B1 through B14 were added at 20 μM and 10 μM respectively in the SK-MEL-28 proliferation assay (FIG. 1). Compounds B3, B5, B7, B11 and B12 were added at 20 μM and 10 μM respectively for the MDA-MB-468 (FIG. 2A) and Panc-1 proliferation assays (FIG. 2B). Plates were incubated for 72 h (37° C., 5% CO2). Percent viability compared to DMSO control was determined using an MTS assay (CellTiter 96 Aqueous, Promega) according to the manufacturer's standard protocol. The standard used in the SK-MEL-28 assay is MG132, a proteasome inhibitor, at 10 uM concentration. It was used as a positive control for cell killing. All the assays are referenced to DMSO as the control at 100% proliferation.

[3] = test system: SK-MEL-28 (metastatic melanoma) cell line; assay: SK-MEL-28 proliferation assay (MTS, percent viability vs DMSO); type: cell-based; settings: 72 h, FIG. 1
Procedure: as §1

[4] = test system: MDA-MB-468 (breast cancer) cell line; assay: MDA-MB-468 proliferation assay (MTS); type: cell-based; settings: for growth rate: 72 h, DMSO control = 100%
Procedure: as §1

[5] = SK-MEL-28, tested at 20 μM and 10 μM

SMILES	result in TNF-α induced NFkB reporter assay [1]	inhibitory effect on proliferation [3, 5]	growth rate ([4]; MDA-MB-468, 20 μM)	further results
COCC(=O)N[C@@H](Cc1ccc(-c2cc(Cl)cc(Cl)c2)cc1)[C@H](O)[C@@H](O)C(=O)O [CC0651]				inhibition of hCdc34 (hCdc34): inhibits
CCOCC(=O)NC(Cc1ccc(-c2cc(Cl)cc(Cl)c2)cc1)C(O)C(O)C(=O)OCC (centres unmarked) [Compound B1]	good results			
CCOC(=O)C(O)C(O)C(Cc1ccc(-c2cc(Cl)cc(Cl)c2)cc1)NC(=O)CCl (centres unmarked) [Compound B3]		good inhibitory effect	5.5%	growth rate ([2]; Panc-1, 10 μM): 4.8%; growth rate ([2]; Panc-1, 20 μM): 5.2%; inhibitory effect on proliferation ([2]; Panc-1, at both concentrations (20 μM and 10 μM)): good inhibitory effect; growth rate ([4]; MDA-MB-468, 10 μM): 6.0%; inhibitory effect on proliferation ([4]; MDA-MB-468, at both concentrations (20 μM and 10 μM)): good inhibitory effect
CCOC(=O)C(O)C(O)C(Cc1ccc(-c2cc(Cl)cc(Cl)c2)cc1)NC(=O)[C@H]1CCCO1 (some centres unmarked) [Compound B4]	good results			
CCOC(=O)C(O)C(O)C(Cc1ccc(-c2cc(Cl)cc(Cl)c2)cc1)NC(=O)[C@@H]1CCCN1C(=O)OC(C)(C)C (some centres unmarked) [Compound B5]	good results	good inhibitory effect	33.5%	
CCOC(=O)C(O)C(O)C(Cc1ccc(-c2cc(Cl)cc(Cl)c2)cc1)NC(=O)CNC(=O)OC(C)(C)C (centres unmarked) [Compound B7]		good inhibitory effect		
CCOC(=O)C(O)C(O)C(Cc1ccc(-c2cc(Cl)cc(Cl)c2)cc1)NC(=O)CN (centres unmarked) [Compound B11]		good inhibitory effect		
CCOC(=O)C(O)C(O)C(Cc1ccc(-c2cc(Cl)cc(Cl)c2)cc1)NC(=O)[C@H](C)N (some centres unmarked) [Compound B12]			11.0%	inhibitory effect on TNF-α induced NFkB luciferase signal ([1]; 20 μM): excellent inhibitory effect; growth rate ([2]; Panc-1, 20 μM): 24.4%; fold more effective than the control ([3]; SK-MEL-28, 20 μM): about 20 fold; inhibitory effect on proliferation ([3]; SK-MEL-28, 20 μM): excellent inhibitory effect
